Data reported in patent US8809366B2, “Thienopyridine ester derivative containing cyano group, preparation method, use and composition thereof” (Tianjin Institute of Pharmaceutical Research, priority 2011, dated 2014).

Legend:
[1] = 1000 mg/kg intragastric once a day; from the third day of administration
Experimental: Two Weeks of Toxicity Studies on Rats (Compared with Clopidogrel)
100 mg/ml suspension is prepared before use, and administrated intragastricly at 1 ml/100 g every morning.
Experimental animals: SD rats weighing about 180 g, 7 female and 7 male in each group.
The same amount of solvent is administrated intragastricly to the blank control group, and equal-dose (1000 mg/kg) of Clopidogrel is administrated intragastricly to the positive control group.

[2] = rat, in vivo
[3] = tested on: ADP-induced platelet aggregation; assay: Inhibiting effect on rat platelet aggregation (ADP-induced, PRP taken 2 h after intragastric administration); assay type: in vivo, Wistar rats; conditions: blood 2 h after administration, ADP final concentration 1.08 μM, X ± SD
Experimental: Experiments of Inhibiting Effect on Rat Platelet Aggregation:
ADP: produced by SIGMA Co.
Wistar rats: SPF grade, male, provided by The Institute of Laboratory Animal Science, Chinese Academy of Medical Sciences, license No. SCXK (jing) 2005-0013.
PAM-3 Dual Channel Platelet Aggregometer: produced by Jiangsu Danyang Radio Factory.
Healthy male Wistar rats weighing 200-250 g were selected and randomly divided into groups. The experiments were carried out in three batches, and each batch was distributed into a normal control group and 6 compound groups, and totally two dose groups were tested in each batch. […] Intragastric administration with a dose volume of 10 ml/kg·bw was used. The normal control group was given the same amount of 0.5% CMC-Na. 2 h after administration, 40 mg/kg of pentobarbital sodium was intraperitoneally injected (1 ml/kg) for anesthesia, and blood was collected from the abdominal aorta. 3.8% sodium citrate was used for anticoagulation, and platelet-rich plasma (PRP) and platelet-poor plasma (PPP) were prepared respectively. Maximum percentage of ADP (final concentration: 1.08 μM) induced platelet aggregation was tested on a PAM-3 Dual Channel Platelet Aggregometer.

[4] = 15 mg/kg intragastric, n=10, control group 74.2 ± 20.8
[5] = 30 mg/kg intragastric, n=6, control group 47.1 ± 14.2

| SMILES | hemorrhagic secretions around the rats' nasal [1] | conversion rate into active metabolites thiols, higher than Clopidogrel [2] | time to peak concentration of active metabolites [2] | Maximum percentage of aggregation [3, 4] | Maximum percentage of aggregation [3, 5] |
| --- | --- | --- | --- | --- | --- |
| COC(=O)[C@H](c1ccccc1Cl)N1CCc2sccc2C1 [Clopidogrel, reference compound] | hemorrhagic secretions around the rats' nasal can be observed | – | – | – | – |
| CC(=O)Oc1cc2c(s1)CCN(Cc1ccccc1C#N)C2 [Compound I-1, (5-(2-cyanobenzyl)-4,5,6,7-tetrahydrothieno[3,2-c]pyridin-2-yl)acetate] | obviously slight in the compound I-1 group than in the Clopidogrel group | about 5 times | 50 to 60 min | 20.5 ± 25.5% | 8.4 ± 8.3% |
| CC(=O)Oc1cc2c(s1)CCN(Cc1cccc(C#N)c1)C2 [Compound I-2, (5-(3-cyanobenzyl)-4,5,6,7-tetrahydrothieno[3,2-c]pyridin-2-yl)acetate] | – | about 5 times | 50 to 60 min | 29.8 ± 24.3% | 4.9 ± 28.4% |
| CC(=O)Oc1cc2c(s1)CCN(Cc1ccc(C#N)cc1)C2 [Compound I-3] | – | about 5 times | 50 to 60 min | 22.7 ± 24.1% | 8.7 ± 17.8% |
